Measurements: ChEMBL document CHEMBL5550190 (J Med Chem, 2024)
pIC50: −log10 of the molar value.

Experiments:
MDA-MB-231 [1] = test: Antitumor activity against human MDA-MB-231 cells incubated for 48 hrs by Celltiter Blue reagent based 2D microtiter assay; format: functional
A549 = test: Antitumor activity against human A549 cells incubated for 48 hrs; format: functional
BMDM = test: Growth inhibition of mouse BMDMs; format: functional, cell-based
MDA-MB-231 [2] = test: Antitumor activity against human MDA-MB-231 cells incubated for 48 hrs in presence of 1.5% BSA by Celltiter Blue reagent based 2D microtiter assay; format: functional
Hs-578T = test: Antitumor activity against human Hs-578T cells incubated for 48 hrs; format: functional
HCT-116 = test: Antitumor activity against human HCT-116 cells incubated for 48 hrs; format: functional
MDA-MB-231 [3] = test: Antitumor activity against human MDA-MB-231 cells incubated for 48 hrs in presence of 1.5% BSA by Celltiter Blue reagent based 3D microtiter assay; format: functional
[4] = Intrinsic clearance in human hepatocytes measured per million cells incubated for 120 mins by LC-MS/MS analysis; format: ADME, cell-based, Hepatocyte; details: read-out: CLH
MDA-MB-231 [5] = test: Antitumor activity against human MDA-MB-231 cells incubated for 48 hrs by Celltiter Blue reagent based 3D microtiter assay; format: functional
Cannabinoid receptor 2 = Cannabinoid receptor 2 (Homo sapiens, UniProt P34972); test: Inhibition of CB2 (unknown origin); format: single protein
Cannabinoid receptor 2, sequence (P34972 whole entry): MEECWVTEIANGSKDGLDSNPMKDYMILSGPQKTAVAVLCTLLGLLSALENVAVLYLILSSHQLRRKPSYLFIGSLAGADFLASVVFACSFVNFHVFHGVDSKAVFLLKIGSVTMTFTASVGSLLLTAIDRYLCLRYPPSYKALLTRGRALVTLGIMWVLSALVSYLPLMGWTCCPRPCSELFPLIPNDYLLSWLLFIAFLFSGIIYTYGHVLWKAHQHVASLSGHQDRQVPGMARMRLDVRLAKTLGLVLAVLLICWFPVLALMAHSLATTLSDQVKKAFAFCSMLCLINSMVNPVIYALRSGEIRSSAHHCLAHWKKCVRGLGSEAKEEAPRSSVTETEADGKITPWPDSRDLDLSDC

- GI50 (MDA-MB-231 [1]): < 1 nM
- GI50 (A549): < 5 nM
- GI50 (MDA-MB-231 [2]): < 1 nM
- GI50 (HCT-116): < 5 nM
- GI50 (MDA-MB-231 [3]): 9.47 nM
- hepatocyte CLint [4]: 8.5 µL/min/1e6 cells
- GI50 (MDA-MB-231 [5]): 2.12 nM
- pIC50 (Cannabinoid receptor 2): 5.33
SMILES: [2H]C([2H])([2H])Oc1cc(C(=O)Nc2cc3c(cc2Oc2cc(C)cc(C)c2)C(=O)N[C@@H](CC(=O)N(OC([2H])([2H])[2H])C([2H])([2H])[2H])C(=O)N3)c(Br)c(OC([2H])([2H])[2H])c1OC([2H])([2H])[2H]
- pIC50 (BMDM): 5.85
- GI50 (Hs-578T): < 5 nM
